The results in this text go back to patent publication US12065443B2, “Compounds and pharmaceutical compositions thereof for the treatment of diseases” (priority 2017, dated 2024).

SMILES strings stand for the structures. Like-named read-outs stand apart in the source and are kept apart here. A value given as a limit tells only on which side of the number the result lay.

As a reminder, the EC50 is the concentration needed to bring the measured effect to its halfway point. A high value points to weaker potency. What is called IC50 is the midpoint of a concentration-inhibition curve.

The test system of assay [1] is LPS-induced TNFα secretion in monocyte-derived macrophages (MdM). Put plainly: MdM assay: LPS-triggered TNFα (ELISA). The conditions noted are these: Homo sapiens, Macrophage, LPS-triggered TNFα inhibition. Format: cell-based, human. An outline of the steps:
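Human CD14+ monocytes isolated from buffy-coat PBMCs by magnetic beads, differentiated to macrophages; on day 10 compound preincubated 1 h at 37 °C, then LPS 200 ng/mL added (0.2% DMSO). Supernatant taken after 20 h; TNFα quantified by sandwich ELISA against standard curve.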
In general terms: ELISA stands for enzyme-linked immunosorbent assay.

For assay [2], the system named is LPS triggered IL-10 secretion in monocyte-derived macrophages (MdM). The experiment in a line: MdM assay: LPS-triggered IL-10 (ELISA). Type of assay: cell-based, human. The following applies: maximal fold change vs LPS only, median across assays. An outline of the steps: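 CD14+ monocytes isolated from human buffy-coat PBMCs and differentiated to macrophages for 10 days. Cells pre-treated with compound 1 h at 37° C (0.2% DMSO), then stimulated with 200 ng/mL LPS; IL-10 in supernatant at 2 h measured by ELISA (A450). Maximal fold change versus LPS only reported as median of two or more runs.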

Assay [3] concerns the target T1, SIK1 (Homo sapiens, UniProt P57059).
T1 construct: purchased Carna Biosciences 02-131
Put plainly: biochemical. The following applies: ADP-Glo SIK kinase assay. The essentials:
(§1)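 Wells with 1% DMSO or 10 μM staurosporine (final) define the control window. The kinase reaction with substrate and ATP runs 120 min at RT, followed by ADP-Glo detection: ATP depletion (40 min) and ADP-derived luminescence (30 min).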

Assay [4] has as its target T2, SIK3 (Homo sapiens, UniProt Q9Y2K2).
T2 construct: purchased SignalChem S12-11G-100
The experiment in a line: biochemical. The following applies: ADP-Glo SIK kinase assay. The essentials: as §1

Assay [5] has as its target T3, SIK2 (Homo sapiens, UniProt Q9H0K1).
T3 construct: purchased ThermoFisher Scientific PV4792
Put plainly: biochemical. The conditions noted are these: ADP-Glo SIK kinase assay. An outline of the steps: as §1

The target in assay [6] is T1, SIK1. The experiment in a line: biochemical. The conditions noted are these: 33P radioactive SIK kinase assay, AMARA peptide, 10 μM ATP; read-out: SIK1 IC50. The essentials: (§2)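 AMARA peptide phosphorylation by SIK1–3 is quantified through ^33P uptake from a labeled/unlabeled ATP blend. Staurosporine at 10 μM final defines full inhibition, 1% DMSO the uninhibited signal. Quench uses phosphoric acid; counting follows filter capture.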

Assay [7] concerns the target T2, SIK3. The experiment in a line: biochemical. The essentials: as §2
The target of assay [8] is T3, SIK2. Put plainly: biochemical. The conditions noted are these: 33P radioactive SIK kinase assay, AMARA peptide, 10 μM ATP. An outline of the steps:
as §2

T3 sequence (Q9H0K1 whole entry): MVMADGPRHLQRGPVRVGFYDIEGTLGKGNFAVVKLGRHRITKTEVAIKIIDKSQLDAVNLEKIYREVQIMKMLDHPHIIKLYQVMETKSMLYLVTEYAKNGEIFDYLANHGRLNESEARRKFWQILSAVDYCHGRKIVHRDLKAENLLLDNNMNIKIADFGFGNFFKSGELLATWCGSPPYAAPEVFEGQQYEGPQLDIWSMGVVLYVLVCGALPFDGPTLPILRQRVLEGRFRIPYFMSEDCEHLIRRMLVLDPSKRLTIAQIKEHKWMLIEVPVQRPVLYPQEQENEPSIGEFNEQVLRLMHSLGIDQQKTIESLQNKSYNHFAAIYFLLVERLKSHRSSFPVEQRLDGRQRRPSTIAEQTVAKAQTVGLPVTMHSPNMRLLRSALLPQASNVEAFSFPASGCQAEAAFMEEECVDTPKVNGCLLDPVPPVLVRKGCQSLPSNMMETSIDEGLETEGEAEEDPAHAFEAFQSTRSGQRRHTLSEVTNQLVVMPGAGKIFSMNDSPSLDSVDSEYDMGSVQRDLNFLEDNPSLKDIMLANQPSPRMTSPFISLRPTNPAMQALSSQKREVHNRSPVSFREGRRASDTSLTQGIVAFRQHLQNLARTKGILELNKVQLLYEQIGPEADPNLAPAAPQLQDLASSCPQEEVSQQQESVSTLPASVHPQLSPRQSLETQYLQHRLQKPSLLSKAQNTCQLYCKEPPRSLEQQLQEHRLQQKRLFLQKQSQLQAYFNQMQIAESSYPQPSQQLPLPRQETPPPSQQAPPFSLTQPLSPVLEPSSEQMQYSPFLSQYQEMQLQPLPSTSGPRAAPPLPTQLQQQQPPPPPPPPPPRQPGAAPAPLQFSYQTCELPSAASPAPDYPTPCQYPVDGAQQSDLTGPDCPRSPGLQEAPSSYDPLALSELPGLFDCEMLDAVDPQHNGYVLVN
T1 sequence (P57059 whole entry): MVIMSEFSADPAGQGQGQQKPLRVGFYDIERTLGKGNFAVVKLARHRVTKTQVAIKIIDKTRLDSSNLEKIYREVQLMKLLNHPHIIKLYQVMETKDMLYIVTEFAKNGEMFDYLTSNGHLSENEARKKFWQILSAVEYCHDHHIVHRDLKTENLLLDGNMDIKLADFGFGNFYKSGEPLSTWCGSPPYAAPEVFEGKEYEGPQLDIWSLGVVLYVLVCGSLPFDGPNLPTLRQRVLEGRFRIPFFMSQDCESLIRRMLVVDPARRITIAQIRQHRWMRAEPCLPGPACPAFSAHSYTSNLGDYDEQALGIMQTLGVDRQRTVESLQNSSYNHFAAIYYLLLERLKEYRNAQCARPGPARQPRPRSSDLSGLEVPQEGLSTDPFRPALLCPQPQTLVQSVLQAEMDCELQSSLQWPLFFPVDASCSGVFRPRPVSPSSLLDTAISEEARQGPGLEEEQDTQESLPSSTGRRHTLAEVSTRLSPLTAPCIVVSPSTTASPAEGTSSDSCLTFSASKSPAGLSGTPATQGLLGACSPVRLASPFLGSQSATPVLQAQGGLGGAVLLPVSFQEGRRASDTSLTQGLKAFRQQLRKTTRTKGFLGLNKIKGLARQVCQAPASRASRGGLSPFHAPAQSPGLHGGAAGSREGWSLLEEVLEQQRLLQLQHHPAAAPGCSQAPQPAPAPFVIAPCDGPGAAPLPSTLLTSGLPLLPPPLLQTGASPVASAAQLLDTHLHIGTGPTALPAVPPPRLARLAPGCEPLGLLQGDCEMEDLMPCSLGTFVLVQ
T2 sequence (Q9Y2K2 whole entry): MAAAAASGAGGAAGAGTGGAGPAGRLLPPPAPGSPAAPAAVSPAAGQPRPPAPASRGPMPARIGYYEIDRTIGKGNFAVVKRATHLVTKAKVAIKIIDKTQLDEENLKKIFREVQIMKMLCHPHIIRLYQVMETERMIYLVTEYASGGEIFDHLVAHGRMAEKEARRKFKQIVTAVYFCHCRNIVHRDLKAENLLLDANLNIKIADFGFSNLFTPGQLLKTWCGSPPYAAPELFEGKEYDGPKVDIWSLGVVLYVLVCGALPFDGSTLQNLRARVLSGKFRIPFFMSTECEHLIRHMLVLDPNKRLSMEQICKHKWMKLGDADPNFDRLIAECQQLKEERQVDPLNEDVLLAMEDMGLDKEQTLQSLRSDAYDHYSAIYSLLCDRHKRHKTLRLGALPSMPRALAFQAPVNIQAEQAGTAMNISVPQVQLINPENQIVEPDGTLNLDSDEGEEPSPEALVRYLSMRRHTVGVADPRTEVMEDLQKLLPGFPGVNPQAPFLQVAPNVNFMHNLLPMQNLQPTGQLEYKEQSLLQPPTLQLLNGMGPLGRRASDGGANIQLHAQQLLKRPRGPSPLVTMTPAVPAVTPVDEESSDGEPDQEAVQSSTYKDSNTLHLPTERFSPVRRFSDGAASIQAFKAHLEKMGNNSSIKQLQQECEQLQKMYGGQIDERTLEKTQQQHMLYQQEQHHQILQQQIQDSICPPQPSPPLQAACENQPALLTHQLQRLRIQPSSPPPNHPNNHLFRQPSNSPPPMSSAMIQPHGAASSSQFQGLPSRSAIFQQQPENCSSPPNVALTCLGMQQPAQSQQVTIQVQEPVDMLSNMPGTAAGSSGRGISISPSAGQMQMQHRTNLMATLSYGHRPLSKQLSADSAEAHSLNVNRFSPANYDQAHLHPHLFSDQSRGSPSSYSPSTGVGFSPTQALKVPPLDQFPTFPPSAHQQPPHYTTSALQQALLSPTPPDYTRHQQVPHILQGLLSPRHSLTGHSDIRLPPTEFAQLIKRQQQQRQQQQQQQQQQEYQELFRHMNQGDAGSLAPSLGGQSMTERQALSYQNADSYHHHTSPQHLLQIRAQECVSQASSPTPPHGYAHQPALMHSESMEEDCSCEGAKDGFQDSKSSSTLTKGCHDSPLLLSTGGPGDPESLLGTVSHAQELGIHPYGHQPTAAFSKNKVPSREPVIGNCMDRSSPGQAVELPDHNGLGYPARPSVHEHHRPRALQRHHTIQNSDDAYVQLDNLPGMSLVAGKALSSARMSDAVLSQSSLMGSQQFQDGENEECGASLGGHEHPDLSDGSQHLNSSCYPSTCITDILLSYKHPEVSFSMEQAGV

`COc1cc(-c2cnc3cc(-c4cnn(C5CN(CCC#N)C5)c4)ccn23)cc(OC)c1C(=O)NCC(F)(F)F` [Cpd 264, 4-[7-[1-[1-(2-cyanoethyl)azetidin-3-yl]pyrazol-4-yl]imidazo[1,2-a]pyridin-3-yl]-2,6-dimethoxy-N-(2,2,2-trifluoroethyl)benzamide] returned a 50% effective concentration (EC50) in assay [1] of 0.1 to 100 nM. The “IL-10 FCmax median” value in assay [2] is on record as “++ (>1.5-4.5)”. In addition, the half-maximal inhibitory concentration (IC50) in assay [3], in assay [4] and in assay [5] was 0.01 to 10 nM each time.

`COc1cc(-c2cnc3cc(-c4ccc(C)nn4)ccn23)cc2c1C(=O)N(CC(F)(F)F)CC2` [Cpd 275, 8-methoxy-6-[7-(6-methylpyridazin-3-yl)imidazo[1,2-a]pyridin-3-yl]-2-(2,2,2-trifluoroethyl)-3,4-dihydroisoquinolin-1-one] displayed an EC50 in assay [1] of 0.1 to 100 nM. For the same compound, the “IL-10 FCmax median” value in assay [2] was “++ (>1.5-4.5)”. Besides, the 50% inhibitory concentration (IC50) lay within 10 to 100 nM in assay [3], 0.01 to 10 nM in assay [4] and 0.01 to 10 nM in assay [5].

As to `CCOC(=O)C(C)Cn1cc(-c2ccn3c(-c4cc(OC)c(C(=O)NCC(F)(F)F)c(OC)c4)cnc3c2)cn1` (stereo not shown) [Cpd 293, ethyl 3-[4-[3-[3,5-dimethoxy-4-(2,2,2-trifluoroethyl-carbamoyl)phenyl]imidazo[1,2-a]pyridin-7-yl]pyrazol-1-yl]-2-methyl-propanoate], the concentration giving a half-maximal response (EC50) in assay [1] was in the range of 0.1 to 100 nM. The “IL-10 FCmax median” value in assay [2] is recorded as “++ (>1.5-4.5)”. In addition, the IC50 in assay [3], in assay [4] and in assay [5] was 0.01 to 10 nM in each case.

For the compound `COc1cc(-n2cnc3cc(-c4cnn(C)c4)ccc32)cc(OC)c1C(=O)NC(C)(C)C` [compound 76, N-tert-butyl-2,6-dimethoxy-4-[5-(1-methylpyrazol-4-yl)benzimidazol-1-yl]benzamide], the IC50 in assay [6], in assay [7], in assay [8], in assay [3], in assay [4] and in assay [5] was more than 500 nM throughout. Also, the EC50 in assay [1] is more than 5000 nM.

`COc1cc(-c2cnc3cc(-c4cnn(C)c4)ccn23)cc(OC)c1C(=O)N1CC(C(F)(F)F)C1` [compound 213, [2,6-dimethoxy-4-[7-(1-methylpvrazol-4-yl)imidazo[1,2-a]pyridin-3-yl]phenyl]-[3-(trifluoromethyl)azetidin-1-yl]methanone]: the IC50 in assay [6], in assay [7], in assay [8], in assay [3], in assay [4] and in assay [5] was 0.01 to 10 nM in each case. The EC50 in assay [1] lay within 0.1 to 100 nM.

With `COc1cc(-c2cnc3cc(-c4cn(C)cn4)ccn23)cc(OC)c1C(=O)N[C@@H](C)C(F)(F)F` [compound 216, 2,6-dimethoxy-4-[7-(1-methylimidazol-4-yl)imidazo[1,2-a]pyridin-3-yl]-N-[(1S)-2,2,2-trifluoro-1-methyl-ethyl]benzamide], the IC50 in assay [6] fell in the range of 100 to 500 nM; in assay [7], 100 to 500 nM; in assay [8] it was 10 to 100 nM; in assay [3], 100 to 500 nM; in assay [4], 10 to 100 nM; in assay [5], 10 to 100 nM. Also, the EC50 in assay [1] fell in the range of 1000 to 5000 nM.

Regarding `COc1cc(-c2cnc3cc(-c4cnnc(C)c4)ccn23)cc(OC)c1C(=O)NCC(F)(F)F` [compound 252, 2,6-dimethoxy-4-[7-(6-methylpyridazin-4-yl)imidazo[1,2-a]pyridin-3-yl]-N-(2,2,2-trifluoroethyl)benzamide], the IC50 in assay [6] was 100 to 500 nM; in assay [7], 0.01 to 10 nM; in assay [8], 10 to 100 nM; in assay [3], 100 to 500 nM; in assay [4], 0.01 to 10 nM; in assay [5] it was 10 to 100 nM. Further, the half-maximal effective concentration (EC50) in assay [1] was 100 to 1000 nM.

As to `COc1cc(-c2cnc3cc(-c4cnn(C)c4)ccn23)cc2c1C(=O)N(CC(F)(F)F)C2` [compound 261, 7-methoxy-5-[7-(1-methylpyrazol-4-yl)imidazo[l,2-a]pyridin-3-yl]-2-(2,2,2-trifluoroethyl)isoindolin-1-one], the IC50 fell in the range of 10 to 100 nM in assay [6]; 0.01 to 10 nM in assay [7]; 0.01 to 10 nM in assay [8]; 0.01 to 10 nM in assay [3]; 0.01 to 10 nM in assay [4]; 0.01 to 10 nM in assay [5]. The EC50 in assay [1] is 0.1 to 100 nM.

Turning to `COc1cc(-c2cnc3cc(-c4cnn(C)c4)ccn23)cc2c1C(=O)N(C1CC1)CC2` [compound 262, 2-cyclopropyl-8-methoxy-6-[7-(1-methylpyrazol-4-yl)imidazo[1,2-a]pyridin-3-yl]-3,4-dihydroisoquinolin-1-one], the half-maximal inhibitory concentration (IC50) in assay [6] was in the range of 10 to 100 nM; in assay [7], 0.01 to 10 nM; in assay [8], 0.01 to 10 nM; in assay [3], 0.01 to 10 nM; in assay [4], 0.01 to 10 nM; in assay [5], 0.01 to 10 nM. The compound further displayed an EC50 in assay [1] of 0.1 to 100 nM.

As to `COc1cc(-c2cnc3cc(-c4cnn(C5CN(CC#N)C5)c4)ccn23)cc(OC)c1C(=O)NCC(F)(F)F` [compound 265, 4-[7-[1-[1-(cyanomethyl)azetidin-3-yl]pyrazol-4-yl]imidazo[1,2-a]pyridin-3-yl]-2,6-dimethoxy-N-(2,2,2-trifluoroethyl)benzamide], in assay [1], the EC50 lay in the range of 0.1 to 100 nM. Further, in assay [2], the “IL-10 FCmax median” value is given as “++ (>1.5-4.5)”. The IC50 in assay [3], in assay [4] and in assay [5] was 0.01 to 10 nM throughout.

As to `COc1ccc(-c2ccn3c(-c4cc(OC)c(C(=O)NC5CC5)c(OC(F)F)c4)cnc3c2)cn1` [compound 267, N-cyclopropyl-2-(difluoromethoxy)-6-methoxy-4-[7-(6-methoxy-3-pyridyl)imidazo[1,2-a]pyridin-3-yl]benzamide], in assay [1], the EC50 is 0.1 to 100 nM. For the same compound, the IC50 in assay [3], in assay [4] and in assay [5] was 0.01 to 10 nM each time.

The compound `COc1cc(-c2cnc3cc(-c4cc(C)no4)ccn23)cc(OC(F)F)c1C(=O)NC1CC1` [compound 270, N-cyclopropyl-2-(difluoromethoxy)-6-methoxy-4-[7-(3-methylisoxazol-5-yl)imidazo[1,2-a]pyridin-3-yl]benzamide] showed an EC50 in assay [1] of 0.1 to 100 nM. Further, the IC50 in assay [3], in assay [4] and in assay [5] was 0.01 to 10 nM throughout.

With `COc1cc(-c2cnc3cc(-c4cnnc(C)c4)ccn23)cc(OC(F)F)c1C(=O)NC1CC1` [compound 272, N-cyclopropyl-2-(difluoromethoxy)-6-methoxy-4-[7-(6-methylpyridazin-4-yl)imidazo[1,2-a]pyridin-3-yl]benzamide], in assay [1], the concentration for a half-maximal effect (EC50) lay in the range of 100 to 1000 nM. The “IL-10 FCmax median” value in assay [2] was “++ (>1.5-4.5)”. Besides, the concentration for half-maximal inhibition (IC50) was 10 to 100 nM in assay [3], 0.01 to 10 nM in assay [4] and 0.01 to 10 nM in assay [5].

Consider `COc1cc(-c2cnc3cc(-c4cncn4C)ccn23)cc(OC(F)F)c1C(=O)NC1CC1` [compound 274, N-cyclopropyl-2-(difluoromethoxy)-6-methoxy-4-[7-(3-methylimidazol-4-yl)imidazo[1,2-a]pyridin-3-yl]benzamide], for which the concentration giving a half-maximal response (EC50) in assay [1] lay within 100 to 1000 nM. For the same compound, the results for the IC50 in assay [3], in assay [4] and in assay [5] were 10 to 100 nM, 0.01 to 10 nM and 0.01 to 10 nM, respectively.

In assay [1], `COc1cc(-c2cnc3cc(-c4ccc(C5CC5)nn4)ccn23)cc(OC(F)F)c1C(=O)NC1CC1` [compound 285, N-cyclopropyl-4-[7-(6-cyclopropyl-pyridazin-3-yl)imidazo[1,2-a]pyridin-3-yl]-2-(difluoromethoxy)-6-methoxy-benzamide] came in with an EC50 of 0.1 to 100 nM. The half-inhibitory concentration (IC50) in assay [3], in assay [4] and in assay [5] was 0.01 to 10 nM each time.

As to `COc1cc(-n2cnc3cc(-c4cn[nH]c4)ccc32)cc(OC(F)F)c1C(=O)NC1CC1` [compound 306, N-cyclopropyl-2-(difluoromethoxy)-6-methoxy-4-[5-(1H-pyrazol-4-yl)benzimidazol-1-yl]benzamide], the EC50 in assay [1] lay in the range of 0.1 to 100 nM. The IC50 in assay [3], in assay [4] and in assay [5] was 0.01 to 10 nM in each case.

In assay [1], `COc1cc(-c2cnc3cc(-c4cn[nH]c4)ccn23)cc(OC(F)F)c1C(=O)NC1CC1` [compound 307, N-cyclopropyl-2-(difluoromethoxy)-6-methoxy-4-[7-(1H-pyrazol-4-yl)imidazo[1,2-a]pyridin-3-yl]benzamide] registered an EC50 of 0.1 to 100 nM. Also, the IC50 in assay [3], in assay [4] and in assay [5] was 0.01 to 10 nM throughout.
